Consider 2 sequences from patent publication US8420100B2, “Tumor suppressor activating polypeptides and uses thereof” (Department of Biotechnology, priority 2006, dated 2013).

“Also recorded” adds a separate entry of the source.

The subject of assay [1] is tumor vasculature of B16F1-induced tumors. The experiment in a line: Hematoxylin and eosin histopathology of B16F1-induced tumors. It counts as in vivo, mouse. Particulars: tumors excised from treated mice. The source says:
(§1) Histopathological changes in the subcutaneous tumors: To analyze the tumor vasculature of TAT PTD, SM treated and P44 treated mice, the tumor sections were stained with HE. […] In SM treated tumors, due to compressed vessels, the shape of RBCs were also distorted (FIG. 7A, lower right panel, arrow marked). […] The presence of hypoxic cells is a hallmark of cancer (Brown, J. M., and Wilson, W. R. (2004) Nat. Rev. Cancer 4, 437-447; Minchinton, A. I., and Tannock, I. F. (2006) Nat. Rev. Cancer 6, 583-592). Cellular responses to hypoxia are triggered by the hypoxia inducible factor-1 alpha (HIF-1α) that is known to restore tissue homeostasis in hypoxic conditions (Semenza, G. L. (2000) Genes Dev. 14, 1983-1991). To determine the status of HIF-1α expression, immunohistochemical analysis was performed on tumor sections obtained from SM and P44 treated mice by using antibody against HIF-1 α. […] All these observations implicate the significance of P44 peptide in restoring tissue architecture in tumor cells and thus potentiates its role as a tumor regressor.
(§2) FIG. 7. Histopathological changes in B16F1-induced tumors. A, Hematoxylin and eosin staining of tumor sections excised from mice treated with either P44 (upper panel) or SM (lower panel) peptide. […] The images have been recorded at 20× and 40×. B, Immunohistochemistry of paraffin embedded tumor sections from P44 treated as well as, SM treated mice. After antigen unmasking, sections were stained with HIF-1α antibody (middle panel) and detected using Cy-3 conjugated mouse immunoglobulin. Sections were counterstained with DAP1 for nuclear localization (left panel). Right panel corresponds to the merged image.

The subject of assay [2] is B16F1 mouse melanoma cells. The experiment in a line: B16F1 melanoma tumor regression in nude mice. The format is in vivo. As to conditions: for anti-tumorigenic activity (tumor regression): xenograft tumor nude mice model. As for the experimental part: P44 peptide: A potent tumor regressor: To test whether the differences in SMAR1 derived peptide-induced activation of p53 translated to differences in drug sensitivity in vivo, B16F1 mouse melanoma cells were subcutaneously grafted into athymic nude mice, and tumor growth together with therapeutic sensitivity was monitored. Once the tumor nodule was established into the mouse, P44 peptide was injected in the tumor localized areas at a physiological dose of 200 μg/mouse thrice a week. The treatment was continued for 4 weeks. In a parallel experiment, either TAT PTD or TAT-SMAR1 RS mutant peptide, SM (FIGS. 6A and B, respectively) was injected in tumor bearing mice to be used as control.
FIG. 6D-F corresponds to the magnified tumor images of FIG. 6A-C, respectively. […] Thus, P44 peptide mimics the function of full-length SMAR1 in drastically reducing the tumor growth.
FIG. 6. Tumor regression by TAT-SMAR1 WT peptide. A, Nude mice were allowed to develop tumors by subcutaneously injecting B 16F1 mouse melanoma cells. Mice with size-matched tumors were then randomized into three treatment groups (five animals per group); TAT PTD alone (panel A), TAT-SMART RS mutant (SM) (panel B) and TAT-SMAR1 WT (P44) (panel C). Panels D, E and F correspond to the magnified images of panels A, B and C, respectively. Mice were treated with either of the peptides at a dose of 200 μg/mice/thrice a week for consecutive 4 weeks. The tumors were then weighed and plotted for each mouse in all the treatment groups (panel G).
Animal model for tumorgenesis: B16F1 mouse melanoma cells in the exponential growth phase were trypsinized (Invitrogen) and washed twice with PBS. Cell number and viability was assessed and cell cultures with viability >90% were used. Tumors were then established in nude mice by subcutaneous injection of 2×10^6 B16F1 cells. Five mice were used in each set of experiments. The mice were maintained under pathogen-free conditions. When the subcutaneous tumor was clearly visible, the TAT-SMAR1 WT (P44) peptide treatment was started. The P44 peptide was subcutaneously injected proximal to the tumor sites at a dose of 200 μg/mouse thrice a week. The treatment was administered for 4 weeks. For control treatment, TAT PTD alone and TAT SMAR1 RS mutant peptide (SM) were injected in the same manner as the P44 peptide.

A further assay concerns HIF-1α. The experiment in a line: Immunohistochemical staining of tumor sections for HIF-1α. The format is in vivo, mouse. Particulars: tumors excised from treated mice.
Excerpt: as §1, §2
Immunohistochemical staining of tumor sections: Tumor sections in paraffin-embedded blocks were transferred to poly-L-lysine coated glass slides and air-dried overnight at 37° C. They were dewaxed in xylene (three changes) and […] in graded series of decreasing ethanol concentrations. […] Thereafter, detected using cy-3 fluorescence labeled secondary antibody. […]

The test system of assay [3] is cell cycle regulatory genes. Put plainly: Microarray gene expression upon P44 treatment. The format is cell-based.

In the case of “YGRKKRRQRRRTAWRRKQRGQSLAVKSFSRRTPAAAAYSASETM [SM, P44 mutant where serine residues from 347-350 were replaced by alanines]”, the “tumor vascular architecture (HE staining)” value in assay [1] is “leaky vascular architecture; also recorded: poorly organized vascular architecture and compressed blood vessels”. The “tumor weight after excision” value in assay [2] (nude mice, 200 μg/mouse thrice a week, 4 weeks) was in the range of 1.2 to 2.5 g. The “anti-tumorigenic activity (tumor regression)” value in assay [2] was “significantly reduced”. The “HIF-1α expression in tumor sections” value in the assay on HIF-1α is “increased HIF-1 α expression”.
Turning to “YGRKKRRQRRRTAWRRKQRGQSLAVKSFSRRTPSSSSYSASETM [P44, 33 mer SMAR1 peptide (residues 324-357) conjugated with 11-mer TAT-PTD]”, in assay [3], the “expression of genes involved in regulating mitosis, MAPK signaling and cell cycle checkpoints” value is given as “significant decreased expression”; the “expression of proteins involved in ubiquitin-proteasome signaling” value is reported as “reduced expression”. Also, in assay [1], the “inter-vessel distance compared to SM-treated tumors” value was “significantly less” and the “tumor vascular architecture (HE staining)” value is listed as “intact vasculature”. Further, the “regression in tumor compared to TAT-injected or SM injected mice” value in assay [2] (nude mice, 200 μg/mouse thrice a week, 4 weeks, injected at tumor site) is listed as 5-7 fold. In addition, the “anti-tumorigenic activity (tumor regression)” value in assay [2] is given as “strongly regressed tumors”. Further, in the assay with HIF-1α, the “HIF-1α expression in tumor sections” value is “no detectable level of HIF-1α”.
